Results taken from patent US5565433A, “Sulfated β-glycolipid derivatives as cell adhesion inhibitors” (Bristol-Myers Squibb Company, priority 1996, dated 1996).

Experiments:
P-selectin = biological target: T1, P-selectin (Homo sapiens, UniProt P16109); experiment: P-Selectin Adhesion Receptor Binding: cell-free ELISA, inhibition of P-selectin binding to immobilized sulfatides; settings: immobilized sulfatide, pH 8.0
T1 construct: consists of the human lectin domain, the EGF domain, and two complement repeats of the human selectins; made in house
Source text: 1. P-Selectin Adhesion Receptor Binding
P-selectin (GMP140, granule membrane protein-140, PADGEM, or CD62) is a calcium-dependent transmembrane protein found in alpha granules of endothelial cells and platelets. It is an inducible selectin produced on activated endothelium and platelets which recognize alpha(2-3)sialylated and alpha(1-3)fucosylated lactosaminoglycans which include the sequence, Lewis x (Zhou et al., J. Cell. Biol., (1991) 115 (2): 557-564) and sulfatides (3-sulfated galactosyl ceramides, Aruffo, et al., Cell (1991) 67: 35-44). P-selectin may be responsible for the initial adhesion events between endothelium and neutrophils as evidenced by leukocyte rolling induced by P-selectin in flow cells (Lawrence, M., and T. Springer, Cell (1991) 65: 859-873).
Based on the availability of soluble forms of P-selectin prepared as described by Aruffo, A., et al., Cell, 67, 35-44 (1991), a binding ELISA based assay modified from Foxall, et al., J., Cell Biol., 117, 895-902 (1992) was developed to measure inhibitors of P-selectin binding to immobilized sulfatides. Such inhibitors were tested in the assay described below.
0.1 ml of sulfatide (SIGMA) or lysosulfatide (SIGMA) each at 1 μg/ml in MeOH were added to the wells of a 96-well ELISA plate (ProBind, Falcon) and allowed to dry overnight at room temperature. The next day the antigen coated plates were blocked for 1.5 hours at room temperature with 5% BSA (ICN) in buffer containing 20mM Hepes and 0.15 M NaCl, pH 8.0. Wild type P-selectin and mutants thereof were first mixed with HRP-conjugated goat anti-human IgG (Fisher Scientific), serially diluted and then incubated for 30 minutes at 37° C. in buffer containing 20 mM Hepes, 0.15 M NaCl, 1% BSA and 0.8 mM CaCl2, pH 8.0 prior to addition to the BSA blocked plates. Following the 30 minute preincubation, the fusion protein-HRP conjugate immunocomplexes were incubated on the blocked antigen coated plates for 45 minutes at 37° C. in the presence or absence of the test compounds and then washed to remove any unbound proteins. Bound complexes were detected by addition of substrate buffer (95 mM NaOAc.3H2 O, 5 mM citric acid monohydrate, 1.4 mM urea/H2O2) containing 3, 3', 5, 5' Tetramethylbenzidine (SIGMA). Reactions were stopped by the addition of 3N sulfuric acid and the absorbance read on an ELISA reader at dual wavelengths 450 and 630 nm. The efficacy of these compounds was compared to that of sulfatide (positive control) or to lysosulfatide (negative control). The data is obtained as percent inhibition of specific binding [formula] and a plot of dose vs. percent inhibition of Rg binding is generated in which IC50 (μM) is calculated and reported as cell free data in Table 1.

[1] = test system: Reverse Passive Arthus Reaction in Rats; experiment: Reverse Passive Arthus Reaction in Rats, vascular permeability (VP); type: in vivo; settings: rat, IV, % inhibition at 3 mg single dose, 4 hours
Source text: (§1) 3. Reverse Passive Arthus Reaction in Rats
(§2) The reverse passive Arthus reaction in rats is a modification of the method by Mulligan et al., as described in J. Clin. Invest., (1991 ) 88:1396-1406. This is an experimental model in which the interaction of antigen-antibody complexes and complement leads to a severe vasculitis that is associated with edema, induration, erythema and hemorrhage. The interaction between the antigen-antibody complexes and complement leads to a localized influx of neutrophils. These neutrophils release a variety of mediators that are associated with tissue damage and vascular permeability. The localized inflammatory reaction is measured using different techniques i.e., vascular permeability and neutrophil influx which is evaluated both biochemically and microscopically.
(§3) Male Sprague Dawley specific pathogen-free rats with jugular vein cannulae (280-320 g, Hill Top Labs, Pa.) are used in these studies. Animals are acclimated for at least 1 day and individually housed in stainless steel cages. The dorsal region of the rats is closely clipped 2 days prior to the experiments and divided into 4 sites on each side of the midline. Prior to all injections the rats are sedated with 0.4 ml per 300 gm rat of ketamine/rompun [1000 mg (10 ml) of ketamine HCL is mixed with 40 mg (2.0 ml) Rompun] administered IP and or inhalation anesthesia with metafane (methoxyflurane).
(§4) Bovin Serum Albumin (BSA) and rabbit polyclonal IgG rich in anti-BSA are purchased from Sigma Chemical Co. (St. Louis, Mo.). Radiolabelled ^125 I-BSA (spAct 1-5 μCi/μg) is purchased from Dupont NEN (Boston, Mass.).
(§5) Each rat is administered intradermal (ID) injection of (0.4 mg, 0.6 mg and 0.8 mg) anti-BSA in a volume of 100 μl per injection in normal saline. The ID injections are randomized near the mid dorsal region on both sides of the back bone. Immediately after the ID injections of the anti-BSA, the rats are administered intravenous (IV) injections of BSA (10 mg in 1.0 ml) in normal saline containing ^125 I labeled BSA (1 μCi/ml BSA or 5.0 μCi/kg body wt) for quantification of dermal vascular injury. Anti-inflammatory agents such as inhibitors of adhesion molecules of the present invention are administered IV at a single dose of 3 mg immediately after BSA. Four (4) hours after the IV injection of BSA, the rats are anesthetized with metafane and 2 to 3 ml of blood is withdrawn via the cannula into an anticoagulant containing (EDTA or Heparin) tube and plasma separated and saved for neutrophil and albumin quantitation. The rats are killed and the skin surrounding the injection site (15 mm diameter) is punched out and weighed. The skin samples and a fixed volume of plasma (0.1 to 1.0 ml) is analyzed in a gamma-counter for ^125 I content. Skin samples from the contralateral side are processed and analyzed for myeloperoxidase activity (MPO) as a measure of neutrophil accumulation. As needed, samples are also processed for histological evaluation of the reacted sites.
Vascular Permeability (VP)
The calculation of the plasma protein exudation into skin is made by determining the radioactivity in the tissue and relating this to the level of radioactive albumin in the blood at the time of sacrifice. […] [formula]
Percent inhibition of the test compound at 3 mg was determined as follows: [formula] Myeloperoxidase (MPO)

[2] = test system: Reverse Passive Arthus Reaction in Rats; experiment: Reverse Passive Arthus Reaction in Rats, myeloperoxidase (MPO); type: in vivo; settings: rat, IV, % inhibition at 3 mg single dose, 4 hours
Source text: as §1, §2, §3, §4, §5
MPO is located in the azurephil granules of polymorphonuclear leukocytes (PMN). Because of its abundance in these cells (5% dry weight), this enzyme is used as a marker for tissue neutrophil content. For tissue MPO content, the method of Bradley, et al., was used as described in J. Invest. […] Change in absorbance at 450 nm was measured at room temperature using a Vmax kinetic plate reader (Molecular Devices, Pale Alto, Calif., USA). Percent inhibition of the test compound at 3 mg dose was determined as follows: [formula] […]

T1 sequence (P16109 with tags, fused parts or gaps limits assumed): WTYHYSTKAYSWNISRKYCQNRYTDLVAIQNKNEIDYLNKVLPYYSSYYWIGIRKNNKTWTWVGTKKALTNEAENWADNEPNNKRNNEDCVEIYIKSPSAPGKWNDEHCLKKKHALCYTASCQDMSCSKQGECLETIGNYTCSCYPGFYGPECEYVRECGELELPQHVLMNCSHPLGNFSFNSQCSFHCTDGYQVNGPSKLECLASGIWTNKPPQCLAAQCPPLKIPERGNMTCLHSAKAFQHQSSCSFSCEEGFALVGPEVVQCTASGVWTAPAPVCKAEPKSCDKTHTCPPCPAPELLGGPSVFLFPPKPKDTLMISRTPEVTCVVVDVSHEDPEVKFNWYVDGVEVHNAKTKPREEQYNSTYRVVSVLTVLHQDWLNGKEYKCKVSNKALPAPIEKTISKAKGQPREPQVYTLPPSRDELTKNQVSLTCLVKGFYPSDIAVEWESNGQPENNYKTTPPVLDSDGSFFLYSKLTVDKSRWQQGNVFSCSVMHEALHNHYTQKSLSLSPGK

| IC50 (P-selectin) [nM] | SMILES | RPA VP % Inhib. [1] [%] | RPA MPO % Inhib. [2] [%] |
| --- | --- | --- | --- |
| 2700 | CCCCCC/C=C/[C@@H](OC(=O)c1ccccc1)[C@H](CO[C@@H]1O[C@H](COS(=O)(=O)O)[C@H](O)[C@H](O)[C@H]1OS(=O)(=O)O)NC(=O)CCCCCCCCCCCCCCC [Example 25, (2S,3R,4E)-3-Benzoyloxy-2-hexadecanoylamino-1-[2,6-di-O-(sodiumoxysulfonyl)-β-D-galactopyranosyloxy]-4-undecene] | – | – |
| 100 | CCCCCCCCCCCCC/C=C/[C@@H](OC(=O)c1ccccc1)[C@H](CO[C@@H]1O[C@H](COS(=O)(=O)O)[C@H](OS(=O)(=O)O)[C@H](OC(=O)c2ccccc2)[C@H]1OC(=O)c1ccccc1)NC(=O)CCCCCCCCCCCCCCC [Example 1, (2S,3R,4E)-3-Benzoyloxy-2-hexadecanoylamino-1-[2,3-di-O-benzoyl-4,6-di-O-(sodiumoxysulfonyl)-β-D-galactopyranosyloxy]-4-octadecene] | 42 | 24 |
| – | CCCCCCCCCCCCC/C=C/[C@@H](OC(=O)c1ccccc1)[C@H](CO[C@@H]1O[C@@H]2COC(c3ccccc3)O[C@@H]2[C@H](OS(=O)(=O)O)[C@H]1OS(=O)(=O)O)NC(=O)CCCCCCCCCCCCCCC (stereo partly drawn) [Example 10, (2S,3R,4E)-3-Benzoyloxy-2-hexadecanoylamino-1-[2,3-di-O-(sodiumoxysulfonyl)-4,6-O-benzylidene-β-D-galactopyranosyloxy)-4-octadecene] | 0 | 56 |
| 200 | CCCCCCCCCCCCC/C=C/[C@@H](OC(=O)c1ccccc1)[C@H](CO[C@@H]1O[C@H](COS(=O)(=O)O)[C@@H](OS(=O)(=O)O)[C@H](OC(=O)c2ccccc2)[C@H]1OC(=O)c1ccccc1)NC(=O)CCCCCCCCCCCCCCC [Example 3, (2S,3R,4E)-2-Hexadecanoylamino-3-benzoyloxy-1-(2,3-di-O-benzoyl-4,6-di-O-(sodiumoxysulfonyl)-β-D-glucopyranosyloxy)-4-octadecene] | 34 | 14 |
